# In ChEMBL document CHEMBL5724914, “Linking interpersonal differences in gut microbiota composition and drug biotransformation activity” (2024):
# Assay: (§1) The drug is tested on WLS-086 corresponding to human gut metagenome with ENA study accession number: PRJEB37062 and ENA sample accession number: ERS12561752 for biotransformation under anaerobic condition. The drug concentrations were measured over 9 timepoints collected between 0 and 24 hours of incubation by liquid-chromatography-coupled mass spectrometry (LC–MS)
# Conditions: 2 µM
# Also: call rule not given here.
row,Bacterial Biotransformation,Compound
1,Compound metabolized,CN1CCC(OC(c2ccccc2)c2ccccc2)CC1
2,Compound metabolized,CCOC(=O)[C@H](CCc1ccccc1)N[C@@H](C)C(=O)N1Cc2ccccc2C[C@H]1C(=O)O
3,Compound metabolized,CCN1CCCC1CNC(=O)c1cc(S(=O)(=O)CC)c(N)cc1OC (stereo not given) [AMISULPRIDE]
4,Compound metabolized,CC(C)NCC(O)COc1ccc(CC(N)=O)cc1 (stereo not given) [ATENOLOL]

# Conditions: human gut metagenome, 24 h, 2 µM
row,Bacterial Biotransformation,Compound
1,Compound NOT metabolized,CN1CCC(OC(c2ccccc2)c2ccccc2)CC1
2,Compound NOT metabolized,CCOC(=O)[C@H](CCc1ccccc1)N[C@@H](C)C(=O)N1Cc2ccccc2C[C@H]1C(=O)O
3,Compound NOT metabolized,CCN1CCCC1CNC(=O)c1cc(S(=O)(=O)CC)c(N)cc1OC (stereo not given) [AMISULPRIDE]
4,Compound NOT metabolized,CC(C)NCC(O)COc1ccc(CC(N)=O)cc1 (stereo not given) [ATENOLOL]

# Assay: as §1, with “Z-004” for “WLS-086”, “to” for “to human gut”, “ERS12561804” for “ERS12561752”
# Conditions: 2 µM
row,Bacterial Biotransformation,Compound
1,Compound NOT metabolized,CN1CCC(OC(c2ccccc2)c2ccccc2)CC1
2,Compound NOT metabolized,CCOC(=O)[C@H](CCc1ccccc1)N[C@@H](C)C(=O)N1Cc2ccccc2C[C@H]1C(=O)O
3,Compound NOT metabolized,CCN1CCCC1CNC(=O)c1cc(S(=O)(=O)CC)c(N)cc1OC (stereo not given) [AMISULPRIDE]
4,Compound NOT metabolized,CC(C)NCC(O)COc1ccc(CC(N)=O)cc1 (stereo not given) [ATENOLOL]

# Conditions: human gut metagenome, 24 h, 2 µM
# Remark: another data set of the same source
row,Bacterial Biotransformation,Compound
1,Compound NOT metabolized,CN1CCC(OC(c2ccccc2)c2ccccc2)CC1
2,Compound metabolized,CCOC(=O)[C@H](CCc1ccccc1)N[C@@H](C)C(=O)N1Cc2ccccc2C[C@H]1C(=O)O
3,Compound NOT metabolized,CCN1CCCC1CNC(=O)c1cc(S(=O)(=O)CC)c(N)cc1OC (stereo not given) [AMISULPRIDE]
4,Compound metabolized,CC(C)NCC(O)COc1ccc(CC(N)=O)cc1 (stereo not given) [ATENOLOL]

# Assay: as §1, with “Z-027” for “WLS-086”, “to” for “to human gut”, “ERS12561826” for “ERS12561752”
# Conditions: 2 µM
row,Bacterial Biotransformation,Compound
1,Compound NOT metabolized,CN1CCC(OC(c2ccccc2)c2ccccc2)CC1
2,Compound NOT metabolized,CCOC(=O)[C@H](CCc1ccccc1)N[C@@H](C)C(=O)N1Cc2ccccc2C[C@H]1C(=O)O
3,Compound NOT metabolized,CCN1CCCC1CNC(=O)c1cc(S(=O)(=O)CC)c(N)cc1OC (stereo not given) [AMISULPRIDE]
4,Compound NOT metabolized,CC(C)NCC(O)COc1ccc(CC(N)=O)cc1 (stereo not given) [ATENOLOL]

# Assay: as §1, with “Z-005” for “WLS-086”, “to” for “to human gut”, “ERS12561805” for “ERS12561752”
# Conditions: 2 µM
row,Bacterial Biotransformation,Compound
1,Compound NOT metabolized,CN1CCC(OC(c2ccccc2)c2ccccc2)CC1
2,Compound NOT metabolized,CCOC(=O)[C@H](CCc1ccccc1)N[C@@H](C)C(=O)N1Cc2ccccc2C[C@H]1C(=O)O
3,Compound NOT metabolized,CCN1CCCC1CNC(=O)c1cc(S(=O)(=O)CC)c(N)cc1OC (stereo not given) [AMISULPRIDE]
4,Compound NOT metabolized,CC(C)NCC(O)COc1ccc(CC(N)=O)cc1 (stereo not given) [ATENOLOL]

# Assay: as §1, with “Z-014” for “WLS-086”, “rat” for “human”, “ERS12561814” for “ERS12561752”
# Conditions: 2 µM
row,Bacterial Biotransformation,Compound
1,Compound NOT metabolized,CN1CCC(OC(c2ccccc2)c2ccccc2)CC1
2,Compound NOT metabolized,CCOC(=O)[C@H](CCc1ccccc1)N[C@@H](C)C(=O)N1Cc2ccccc2C[C@H]1C(=O)O
3,Compound NOT metabolized,CCN1CCCC1CNC(=O)c1cc(S(=O)(=O)CC)c(N)cc1OC (stereo not given) [AMISULPRIDE]
4,Compound NOT metabolized,CC(C)NCC(O)COc1ccc(CC(N)=O)cc1 (stereo not given) [ATENOLOL]

# Assay: as §1, with “Z-010” for “WLS-086”, “to” for “to human gut”, “ERS12561810” for “ERS12561752”
# Conditions: 2 µM
row,Bacterial Biotransformation,Compound
1,Compound NOT metabolized,CN1CCC(OC(c2ccccc2)c2ccccc2)CC1
2,Compound NOT metabolized,CCOC(=O)[C@H](CCc1ccccc1)N[C@@H](C)C(=O)N1Cc2ccccc2C[C@H]1C(=O)O
3,Compound NOT metabolized,CCN1CCCC1CNC(=O)c1cc(S(=O)(=O)CC)c(N)cc1OC (stereo not given) [AMISULPRIDE]
4,Compound NOT metabolized,CC(C)NCC(O)COc1ccc(CC(N)=O)cc1 (stereo not given) [ATENOLOL]

# Conditions: human gut metagenome, 24 h, 2 µM
# Remark: another data set of the same source
row,Bacterial Biotransformation,Compound
1,Compound metabolized,CN1CCC(OC(c2ccccc2)c2ccccc2)CC1
2,Compound metabolized,CCOC(=O)[C@H](CCc1ccccc1)N[C@@H](C)C(=O)N1Cc2ccccc2C[C@H]1C(=O)O
3,Compound metabolized,CCN1CCCC1CNC(=O)c1cc(S(=O)(=O)CC)c(N)cc1OC (stereo not given) [AMISULPRIDE]
4,Compound metabolized,CC(C)NCC(O)COc1ccc(CC(N)=O)cc1 (stereo not given) [ATENOLOL]

# Assay: as §1, with “WLS-007” for “WLS-086”, “ERS12561742” for “ERS12561752”
# Conditions: 2 µM
row,Bacterial Biotransformation,Compound
1,Compound NOT metabolized,CN1CCC(OC(c2ccccc2)c2ccccc2)CC1
2,Compound metabolized,CCOC(=O)[C@H](CCc1ccccc1)N[C@@H](C)C(=O)N1Cc2ccccc2C[C@H]1C(=O)O
3,Compound NOT metabolized,CCN1CCCC1CNC(=O)c1cc(S(=O)(=O)CC)c(N)cc1OC (stereo not given) [AMISULPRIDE]
4,Compound NOT metabolized,CC(C)NCC(O)COc1ccc(CC(N)=O)cc1 (stereo not given) [ATENOLOL]

# Assay: as §1, with “WLS-310” for “WLS-086”, “ERS12561785” for “ERS12561752”
# Conditions: 2 µM
row,Bacterial Biotransformation,Compound
1,Compound metabolized,CN1CCC(OC(c2ccccc2)c2ccccc2)CC1
2,Compound metabolized,CCOC(=O)[C@H](CCc1ccccc1)N[C@@H](C)C(=O)N1Cc2ccccc2C[C@H]1C(=O)O
3,Compound metabolized,CCN1CCCC1CNC(=O)c1cc(S(=O)(=O)CC)c(N)cc1OC (stereo not given) [AMISULPRIDE]
4,Compound metabolized,CC(C)NCC(O)COc1ccc(CC(N)=O)cc1 (stereo not given) [ATENOLOL]

# Assay: as §1, with “Z-018” for “WLS-086”, “pig” for “human”, “ERS12561817” for “ERS12561752”
# Conditions: 2 µM
row,Bacterial Biotransformation,Compound
1,Compound metabolized,CN1CCC(OC(c2ccccc2)c2ccccc2)CC1
2,Compound NOT metabolized,CCOC(=O)[C@H](CCc1ccccc1)N[C@@H](C)C(=O)N1Cc2ccccc2C[C@H]1C(=O)O
3,Compound NOT metabolized,CCN1CCCC1CNC(=O)c1cc(S(=O)(=O)CC)c(N)cc1OC (stereo not given) [AMISULPRIDE]
4,Compound NOT metabolized,CC(C)NCC(O)COc1ccc(CC(N)=O)cc1 (stereo not given) [ATENOLOL]

# Assay: as §1, with “WLS-370” for “WLS-086”, “ERS12561793” for “ERS12561752”
# Conditions: 2 µM
row,Bacterial Biotransformation,Compound
1,Compound metabolized,CN1CCC(OC(c2ccccc2)c2ccccc2)CC1
2,Compound metabolized,CCOC(=O)[C@H](CCc1ccccc1)N[C@@H](C)C(=O)N1Cc2ccccc2C[C@H]1C(=O)O
3,Compound NOT metabolized,CCN1CCCC1CNC(=O)c1cc(S(=O)(=O)CC)c(N)cc1OC (stereo not given) [AMISULPRIDE]
4,Compound NOT metabolized,CC(C)NCC(O)COc1ccc(CC(N)=O)cc1 (stereo not given) [ATENOLOL]

# Assay: as §1, with “WLS-010” for “WLS-086”, “ERS12561743” for “ERS12561752”
# Conditions: 2 µM
row,Bacterial Biotransformation,Compound
1,Compound NOT metabolized,CN1CCC(OC(c2ccccc2)c2ccccc2)CC1
2,Compound metabolized,CCOC(=O)[C@H](CCc1ccccc1)N[C@@H](C)C(=O)N1Cc2ccccc2C[C@H]1C(=O)O
3,Compound NOT metabolized,CCN1CCCC1CNC(=O)c1cc(S(=O)(=O)CC)c(N)cc1OC (stereo not given) [AMISULPRIDE]
4,Compound NOT metabolized,CC(C)NCC(O)COc1ccc(CC(N)=O)cc1 (stereo not given) [ATENOLOL]

# Conditions: human gut metagenome, 24 h, 2 µM
# Remark: another data set of the same source
row,Bacterial Biotransformation,Compound
1,Compound NOT metabolized,CN1CCC(OC(c2ccccc2)c2ccccc2)CC1
2,Compound metabolized,CCOC(=O)[C@H](CCc1ccccc1)N[C@@H](C)C(=O)N1Cc2ccccc2C[C@H]1C(=O)O
3,Compound metabolized,CCN1CCCC1CNC(=O)c1cc(S(=O)(=O)CC)c(N)cc1OC (stereo not given) [AMISULPRIDE]
4,Compound metabolized,CC(C)NCC(O)COc1ccc(CC(N)=O)cc1 (stereo not given) [ATENOLOL]

# Assay: as §1, with “Z-006” for “WLS-086”, “mouse” for “human”, “ERS12561806” for “ERS12561752”
# Conditions: 2 µM
row,Bacterial Biotransformation,Compound
1,Compound NOT metabolized,CN1CCC(OC(c2ccccc2)c2ccccc2)CC1
2,Compound NOT metabolized,CCOC(=O)[C@H](CCc1ccccc1)N[C@@H](C)C(=O)N1Cc2ccccc2C[C@H]1C(=O)O
3,Compound NOT metabolized,CCN1CCCC1CNC(=O)c1cc(S(=O)(=O)CC)c(N)cc1OC (stereo not given) [AMISULPRIDE]
4,Compound NOT metabolized,CC(C)NCC(O)COc1ccc(CC(N)=O)cc1 (stereo not given) [ATENOLOL]

# Conditions: human gut metagenome, 24 h, 2 µM
# Remark: another data set of the same source
row,Bacterial Biotransformation,Compound
1,Compound NOT metabolized,CN1CCC(OC(c2ccccc2)c2ccccc2)CC1
2,Compound metabolized,CCOC(=O)[C@H](CCc1ccccc1)N[C@@H](C)C(=O)N1Cc2ccccc2C[C@H]1C(=O)O
3,Compound NOT metabolized,CCN1CCCC1CNC(=O)c1cc(S(=O)(=O)CC)c(N)cc1OC (stereo not given) [AMISULPRIDE]
4,Compound NOT metabolized,CC(C)NCC(O)COc1ccc(CC(N)=O)cc1 (stereo not given) [ATENOLOL]

# Assay: as §1, with “Z-019” for “WLS-086”, “rat” for “human”, “ERS12561818” for “ERS12561752”
# Conditions: 2 µM
row,Bacterial Biotransformation,Compound
1,Compound NOT metabolized,CN1CCC(OC(c2ccccc2)c2ccccc2)CC1
2,Compound NOT metabolized,CCOC(=O)[C@H](CCc1ccccc1)N[C@@H](C)C(=O)N1Cc2ccccc2C[C@H]1C(=O)O
3,Compound NOT metabolized,CCN1CCCC1CNC(=O)c1cc(S(=O)(=O)CC)c(N)cc1OC (stereo not given) [AMISULPRIDE]
4,Compound NOT metabolized,CC(C)NCC(O)COc1ccc(CC(N)=O)cc1 (stereo not given) [ATENOLOL]

# Conditions: human gut metagenome, 24 h, 2 µM
# Remark: another data set of the same source
row,Bacterial Biotransformation,Compound
1,Compound NOT metabolized,CN1CCC(OC(c2ccccc2)c2ccccc2)CC1
2,Compound NOT metabolized,CCOC(=O)[C@H](CCc1ccccc1)N[C@@H](C)C(=O)N1Cc2ccccc2C[C@H]1C(=O)O
3,Compound NOT metabolized,CCN1CCCC1CNC(=O)c1cc(S(=O)(=O)CC)c(N)cc1OC (stereo not given) [AMISULPRIDE]
4,Compound metabolized,CC(C)NCC(O)COc1ccc(CC(N)=O)cc1 (stereo not given) [ATENOLOL]

# Conditions: human gut metagenome, 24 h, 2 µM
# Remark: another data set of the same source
row,Bacterial Biotransformation,Compound
1,Compound NOT metabolized,CN1CCC(OC(c2ccccc2)c2ccccc2)CC1
2,Compound metabolized,CCOC(=O)[C@H](CCc1ccccc1)N[C@@H](C)C(=O)N1Cc2ccccc2C[C@H]1C(=O)O
3,Compound NOT metabolized,CCN1CCCC1CNC(=O)c1cc(S(=O)(=O)CC)c(N)cc1OC (stereo not given) [AMISULPRIDE]
4,Compound NOT metabolized,CC(C)NCC(O)COc1ccc(CC(N)=O)cc1 (stereo not given) [ATENOLOL]
